Measured values reported in patent US20040175691A1, “Use of the KCNQ2 and KCNQ3 genes for the discovery of agents useful in the treatment of neurological disorders” (priority 1998, published 2004).

Experiments:
KCNQ2 = KCNQ2 (Homo sapiens, UniProt O43526, DEL417-446); assay: Blockade of KCNQ2 channels expressed in Xenopus oocytes; type: cell-based; design: Full-length KCNQ2 cDNAs were amplified from adult human brain cDNA; expressed in transfected cells; host or cells: Xenopus oocytes injected with cRNA; conditions: homomultimeric KCNQ2, oocytes; Hill coefficient set to unity; read-out: KD for TEA block of KCNQ2 channels
Protocol: (§1) Method: Full-length KCNQ2 cDNAs were amplified from adult human brain cDNA using the following primers ([…], […]) with the Expand Fidelity enzyme mixture (Boehringer Mannheim, Indianapolis). […] This region is also alternatively spliced in the KCNQ2 cDNA clone described by Biervert et al. (1998). Preparation, injection of cRNA and recording from oocytes was performed at room temperature as described previously (Dixon et al. 1996). The standard extracellular recording solution contained: 82 mM NaCl, 2 mM KCl, 1.8 mM CaCl2, 1 mM MgCl2, and 5 mM Na-HEPES (pH 7.6). Data collection and analysis were performed using pClamp software (Axon Instruments, Foster City, Calif.).
IC50 values are all expressed in μM, mean±s.e.m.

KCNQ2 + KCNQ3 = molecular target: T1, KCNQ2 + KCNQ3 (UniProt O43526+O88944, DEL417-446); assay: Blockade of KCNQ2+KCNQ3 channels expressed in Xenopus oocytes; type: cell-based, human KCNQ2, rat KCNQ3
T1 construct: Full-length KCNQ2 cDNAs were amplified from adult human brain cDNA; Multiple full-length cDNA clones were amplified in independent PCR reactions from rat SCG cDNA; expressed in transfected cells; host or cells: Xenopus oocytes injected with cRNA
Protocol: as §1
Holding potential was −60 mV and the cell was repetitively depolarized to −30 mV for 1 minute to reach steady-state blockade. Tail currents were recorded at −50 mV.
IC50 values are all expressed in μM, mean±s.e.m. In cases where the IC50 values were greater than 100 μM the exact value is not reported due to limited solubility in the drug.

M-current = molecular target: T2, M-current (Rattus norvegicus, UniProt O88943+O88944); assay: Blockade of native M-current in SCG neurons (voltage clamp, intact ganglia); type: cell-based; conditions: rat sympathetic neurons; read-out: KD for TEA blockade of native M-current
T2 construct: from tissue
Protocol: Method: Recordings of the M-current in sympathetic neurons in intact ganglia were performed at room temperature as described previously (Wang and McKinnon, 1995). The standard extracellular recording solution was: NaCl (133 mM, KCl (4.7 mM), NaH2PO4 (1.3 mM), NaHCO3 (16.3 mM), CaCl2 (2 mM), MgCl2 (1.2 mM) and glucose (1.4 g/liter), bubbled with 95% O2-5% CO2 to give pH 7.2-7.4.
A. Blockade of M-current in SCG neurons by XE991. Holding potential was −30 mV and step potential was −50 mV for 1 second. The shift in holding current following drug application is due to the inhibition of M-current activated at the holding potential.
Maximal block of native M-current was 93±2%. Data points are averages and error bars represent s.e.m.

hKCNQ2 potassium channel = molecular target: T3, hKCNQ2 potassium channel (Homo sapiens, UniProt O43526, DEL417-446); assay: Membrane potential-evoked fluorescence (FLIPR, DiBAC) in HEK 293E cells stably expressing hKCNQ2; type: cell-based; conditions: FIG. 7
T3 construct: Full-length hKCNQ2 cDNAs were amplified from adult human brain cDNA; expressed in transfected cells; host or cells: 293 EBNA (HEK 293E) cells, episomal plasmid pm3AR-hKCNQ2-1, hygromycin B selection
Protocol: The ability of KCNQ2 modulators to alter membrane potential was assessed using a fluorescence imaging plate reader (FLIPR). Cultured HEK 293E cells expressing hKCNQ2 channels are plated on poly-D-lysine-coated 96-well Costar microplates (#3603) at 300,000-750,000 cells/ml and allowed to reach confluence in DMEM (with 10% FBS and 250 ug/ml hygromycin B) at 37° C. and 5% CO2. After reaching confluence, growth medium is removed, replaced with a standard Hank's balanced salt solution containing 5 uM dibac(4)3, bis-oxonol (Molecular Probes # B-438) at 37° C. The cell plate is then placed in the recording chamber (equilibrated to 37° C.) of a fluorescence imaging plate reader (FLIPR; Molecular Devices) along with two drug plates (one containing standard Hank's balanced salt solution+dibac and the other containing standard Hank's balanced salt solution+dibac+test compound at various experimental concentrations).
These cells were loaded with the voltage-sensitive fluorescent dye, DiBAC, that distributes across cell membranes in a voltage-dependent manner. As cells depolarize (become more positive inside), more dye enters the cells and an increase in fluorescence occurs.
In FIG. 7, the relative effects of several M-current modulators on the flourescence of HEK 293E cells stably expressing the hKCNQ2 potassium channel is shown. These cells were loaded with the voltage-sensitive fluorescent dye, DiBAC, that distributes across cell membranes in a voltage-dependent manner. As cells depolarize, more dye enters the cells and an increase in fluorescence occurs. Conversely, as cells hyperpolarize (become more negative inside), more dye leaves the cells and a decrease in fluorescence occurs.

| Relative effect on fluorescence / membrane potential (hKCNQ2 potassium channel; 100 μM) | Structure (SMILES) | Kd (KCNQ2) [µM] | Kd (KCNQ2 + KCNQ3; co-injection of KCNQ2 and KCNQ3 mRNAs, read-out: KD for TEA block of KCNQ2+KCNQ3 channels) [mM] | Hill coefficient of TEA block of KCNQ2+KCNQ3 channels (KCNQ2 + KCNQ3; dose response fitted with Hill equation) | Kd (M-current) [mM] | Relative effect on fluorescence / membrane potential (hKCNQ2 potassium channel; 3 μM) |
| --- | --- | --- | --- | --- | --- | --- |
|  | CC[N+](CC)(CC)CC [TEA, tetraethylammonium] | 160 ± 20 | 3.5 ± 0.7 | 0.82±0.03 | 6.1 |  |
| apparent membrane hyperpolarization | Nc1ccc(CC2(Cc3ccc(N)cc3)C(=O)N(c3ccccc3)c3ccccc32)cc1 [X7315] |  |  |  |  | no effect |
|  | O=C1c2ccccc2C(Cc2ccnc(F)c2)(Cc2ccnc(F)c2)c2ccccc21 [XR543] |  |  |  |  | more membrane depolarization than linopirdine |
